From patent US9079919B2 (HOFFMANN-LA ROCHE INC., priority 2011, dated 2015)

The molecules below were run against T1, BACE1 (Homo sapiens, UniProt P56817) (assay: Cellular Aβ-lowering assay a) (Aβ40 ELISA)). Details: cellular assay a): HEK293 cells expressing human APP695, Aβ40 in supernatant by ELISA after 18-20 hrs; read-out: BACE1 cell act. Aβ40 IC50.
T1 construct: Human HEK293 cells which are stably transfected with a vector expressing a cDNA of the human APP wt gene (APP695); endogenous in cells; host or cells: HEK293 cells stably transfected with human APP695 (wt)
T1 sequence (P56817 46-501): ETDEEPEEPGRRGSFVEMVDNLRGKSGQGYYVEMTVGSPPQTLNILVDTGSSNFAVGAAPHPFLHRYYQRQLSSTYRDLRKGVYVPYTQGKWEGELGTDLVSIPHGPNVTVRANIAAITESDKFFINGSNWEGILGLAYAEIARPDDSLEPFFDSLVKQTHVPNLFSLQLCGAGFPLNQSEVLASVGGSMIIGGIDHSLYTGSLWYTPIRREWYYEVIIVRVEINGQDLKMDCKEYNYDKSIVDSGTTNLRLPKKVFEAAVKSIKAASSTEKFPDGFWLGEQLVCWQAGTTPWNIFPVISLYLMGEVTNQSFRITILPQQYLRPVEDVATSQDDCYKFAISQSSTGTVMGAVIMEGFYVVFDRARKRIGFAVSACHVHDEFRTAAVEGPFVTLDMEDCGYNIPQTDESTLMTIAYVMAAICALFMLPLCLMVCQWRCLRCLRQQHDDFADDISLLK
Format: cell-based
Description: a) Human HEK293 cells which are stably transfected with a vector expressing a cDNA of the human APP wt gene (APP695) were used to assess the potency of the compounds in a cellular assay. The cells were seeded in 96-well microtiter plates in cell culture medium (Iscove, plus 10% (v/v) fetal bovine serum, glutamine, penicillin/streptomycin) to about 80% confluence and the compounds were added at a 10× concentration in 1/10 volume of medium without FCS containing 8% DMSO (final concentration of DMSO was kept at 0.8% v/v). After 18-20 hrs incubation at 37° C. and 5% CO2 in a humidified incubator the culture supernatant was harvested for the determination of Aβ40 concentrations. 96 well ELISA plates (e.g., Nunc MaxiSorb) were coated with monoclonal antibody which specifically recognize the C-terminal end of Aβ40 (Brockhaus et al., NeuroReport 9, 1481-1486; 1998). After blocking of non-specific binding sites with e.g. 1% BSA and washing, the culture supernatants were added in suitable dilutions together with a horseradish peroxidase-coupled Aβ detection antibody (e.g., antibody 4G8, Senetek, Maryland Heights, Mo.) and incubated for 5 to 7 hrs. Subsequently the wells of the microtiter plate were washed extensively with Tris-buffered saline containing 0.05% Tween 20 and the assay was developed with tetramethylbenzidine/H2O2 in citric acid buffer. After stopping the reaction with one volume of 1N H2SO4 the reaction was measured in an ELISA reader at 450 nm wavelength. The concentrations of Aβ in the culture supernatants were calculated from a standard curve obtained with known amounts of pure Aβ peptide.

Point of comparison: NC1=N[C@@]2(CCc3ccc(NC(=O)c4ccc(Cl)cn4)cc32)C(F)(F)CO1 [Example 16, (R)—N-(2′-Amino-5′,5′-difluoro-2,3,5′,6′-tetrahydrospiro[indene-1,4′-[1,3]oxazine]-6-yl)-5-chloropicolinamide], IC50 2490 nM. Against it:
- NC1=N[C@@]2(CC(c3ccccc3)Oc3ccc(-c4cncc(Cl)c4)cc32)C(F)(F)CO1 (mixture of isomers) [Example 23, (2RS,4R)-6-(5-chloropyridin-3-yl)-5′,5′-difluoro-2-phenyl-5′,6′-dihydrospiro[chroman-4,4′-[1,3]oxazin]-2′-amine] — 5.9-fold lower, 420 nM
- N#Cc1cncc(-c2ccc3c(c2)[C@@]2(CC(c4ccccc4)O3)N=C(N)OCC2(F)F)c1 (mixture of isomers) [Example 24, 5-((2RS,4R)-2′-amino-5′,5′-difluoro-2-phenyl-5′,6′-dihydrospiro[chroman-4,4′-[1,3]oxazine]-6-yl)nicotinonitrile] — 25-fold lower, 98 nM
- NC1=N[C@@]2(CC(c3ccccc3)Oc3ccc(-c4cncnc4)cc32)C(F)(F)CO1 (mixture of isomers) [Example 25, (2RS,4R)-5′,5′-difluoro-2-phenyl-6-(pyrimidin-5-yl)-5′,6′-dihydrospiro[chroman-4,4′-[1,3]oxazin]-2′-amine] — 1.6-fold lower, 1580 nM
- NC1=N[C@@]2(CC(c3ccccc3)Oc3ccc(-c4cc(Cl)cc(Cl)c4)cc32)C(F)(F)CO1 (mixture of isomers) [Example 26, (2RS,4R)-6-(3,5-dichlorophenyl)-5′,5′-difluoro-2-phenyl-5′,6′-dihydrospiro[chroman-4,4′-[1,3]oxazin]-2′-amine] — within 1.5-fold, 2870 nM
- NC1=N[C@@]2(CC(c3ccccc3)Oc3ccc(NC(=O)c4ccc(C(F)(F)F)cn4)cc32)C(F)(F)COC1 (mixture of isomers) [Example 52, N-((2RS,4R)-3′-Amino-6′,6′-difluoro-2-phenyl-6′,7′-dihydro-2′H-spiro[chroman-4,5′-[1,4]oxazepine]-6-yl)-5-(trifluoromethyl)picolinamide] — within 1.5-fold, 3380 nM
- N#Cc1ccc(C(=O)Nc2ccc3c(c2)[C@@]2(CC(c4ccccc4)O3)N=C(N)COCC2(F)F)nc1 (mixture of isomers) [Example 53, N-((2RS,4R)-3′-Amino-6′,6′-difluoro-2-phenyl-6′,7′-dihydro-2′H-spiro[chroman-4,5′-[1,4]oxazepine]-6-yl)-5-cyanopicolinamide] — 5.3-fold lower, 470 nM
- NC1=N[C@@]2(CC(c3ccccc3)Oc3ccc(-c4cncc(Cl)c4)cc32)C(F)(F)COC1 (mixture of isomers) [Example 56, (2RS,4R)-6-(5-Chloropyridin-3-yl)-6′,6′-difluoro-2-phenyl-6′,7′-dihydro-2′H-spiro[chroman-4,5′-[1,4]oxazepin]-3′-amine] — within 1.5-fold, 2100 nM
- NC1=N[C@@]2(CC(c3ccccc3)Oc3ccc(-c4cc(Cl)cc(Cl)c4)cc32)C(F)(F)COC1 (mixture of isomers) [Example 57, (2RS,4R)-6-(3,5-Dichlorophenyl)-6′,6′-difluoro-2-phenyl-6′,7′-dihydro-2′H-spiro[chroman-4,5′-[1,4]oxazepin]-3′-amine] — 2.5-fold higher, 6280 nM
- NC1=N[C@@]2(CC(c3ccccc3)Oc3ccc(-c4cncnc4)cc32)C(F)(F)COC1 (mixture of isomers) [Example 58, (2RS,4R)-6′,6′-difluoro-2-phenyl-6-(pyrimidin-5-yl)-6′,7′-dihydro-2′H-spiro[chroman-4,5′-[1,4]oxazepin]-3′-amine] — 1.9-fold lower, 1290 nM
- N#Cc1cncc(-c2ccc3c(c2)[C@@]2(CC(c4ccccc4)O3)N=C(N)COCC2(F)F)c1 (mixture of isomers) [Example 59, 5-((2RS,4R)-3′-amino-6′,6′-difluoro-2-phenyl-6′,7′-dihydro-2′H-spiro[chroman-4,5′-[1,4]oxazepine]-6-yl)nicotinonitrile] — 7.3-fold lower, 340 nM
- N#Cc1cccc(-c2ccc3c(c2)[C@@]2(CC(c4ccccc4)O3)N=C(N)COCC2(F)F)c1 (mixture of isomers) [Example 60, 3-((2RS,4R)-3′-amino-6′,6′-difluoro-2-phenyl-6′,7′-dihydro-2′H-spiro[chroman-4,5′-[1,4]oxazepine]-6-yl)benzonitrile] — 2.4-fold lower, 1040 nM
- NC1=N[C@@]2(CC(c3ccccc3)Oc3ccc(NC(=O)c4ccc(Cl)cn4)cc32)C(F)(F)CO1 (single isomer, unassigned) [Example 36, N-((2R or 2S,4R)-2′-Amino-5′,5′-difluoro-2-phenyl-5′,6′-dihydrospiro[chroman-4,4′-[1,3]oxazine]-6-yl)-5-chloropicolinamide] — 13-fold lower, 195 nM
- N#Cc1ccc(C(=O)Nc2ccc3c(c2)[C@@]2(CC(c4ccccc4)O3)N=C(N)OCC2(F)F)nc1 (single isomer, unassigned) [Example 37, N-((2R or 2S,4R)-2′-Amino-5′,5′-difluoro-2-phenyl-5′,6′-dihydrospiro[chroman-4,4′-[1,3]oxazine]-6-yl)-5-cyanopicolinamide] — 36-fold lower, 70 nM
- NC1=N[C@@]2(CC(c3ccccc3)Oc3ccc(NC(=O)c4ccc(F)cn4)cc32)C(F)(F)CO1 (single isomer, unassigned) [Example 38, N-((2R or 2S,4R)-2′-Amino-5′,5′-difluoro-2-phenyl-5′,6′-dihydrospiro[chroman-4,4′-[1,3]oxazine]-6-yl)-5-fluoropicolinamide] — 4.9-fold lower, 510 nM
- NC1=N[C@@]2(CC(c3ccccc3)Oc3ccc(NC(=O)c4ccc(C(F)(F)F)cn4)cc32)C(F)(F)CO1 (single isomer, unassigned) [Example 39, N-((2R or 2S,4R)-2′-Amino-5′,5′-difluoro-2-phenyl-5′,6′-dihydrospiro[chroman-4,4′-[1,3]oxazine]-6-yl)-5-(trifluoromethyl)picolinamide] — 8.9-fold lower, 280 nM
- NC1=N[C@@]2(CCC(F)(F)c3ccc(-c4cncc(Cl)c4)cc32)C(F)(F)CO1 [Example 3, (R)-7-(5-Chloropyridin-3-yl)-4,4,5′,5′-tetrafluoro-3,4,5′,6′-tetrahydro-2H-spiro[naphthalene-1,4′-[1,3]oxazin]-2′-amine] — within 1.5-fold, 2550 nM
- NC1=N[C@@]2(CCC(F)(F)c3ccc(-c4cncc(F)c4)cc32)C(F)(F)CO1 [Example 4, (R)-4,4,5′,5′-Tetrafluoro-7-(5-fluoropyridin-3-yl)-3,4,5′,6′-tetrahydro-2H-spiro[naphthalene-1,4′-[1,3]oxazin]-2′-amine] — 2.3-fold higher, 5690 nM
- N#Cc1cncc(-c2ccc3c(c2)[C@@]2(CCC3(F)F)N=C(N)OCC2(F)F)c1 [Example 5, (R)-5-(2′-Amino-4,4,5′,5′-tetrafluoro-3,4,5′,6′-tetrahydro-2H-spiro[naphthalene-1,4′-[1,3]oxazine]-7-yl)nicotinonitrile] — within 1.5-fold, 2770 nM
- NC1=N[C@@]2(CCc3ccc(-c4ccnc(Cl)c4)cc32)C(F)(F)CO1 [Example 6, (R)-6-(2-Chloropyridin-4-yl)-5′,5′-difluoro-2,3,5′,6′-tetrahydrospiro[indene-1,4′-[1,3]oxazin]-2′-amine] — 1.8-fold lower, 1360 nM
- NC1=N[C@@]2(CCc3ccc(-c4cncnc4)cc32)C(F)(F)CO1 [Example 7, (R)-5′,5′-Difluoro-6-(pyrimidin-5-yl)-2,3,5′,6′-tetrahydrospiro[indene-1,4′-[1,3]oxazin]-2′-amine] — within 1.5-fold, 2370 nM
- N#Cc1cccc(-c2ccc3c(c2)[C@@]2(CC3)N=C(N)OCC2(F)F)c1 [Example 10, (R)-3-(2′-Amino-5′,5′-difluoro-2,3,5′,6′-tetrahydrospiro[indene-1,4′-[1,3]oxazine]-6-yl)benzonitrile] — 2.6-fold lower, 960 nM
- NC1=N[C@@]2(CCCc3ccc(NC(=O)c4ccc(Cl)cn4)cc32)C(F)(F)CO1 [Example 12, (R)—N-(2′-Amino-5′,5′-difluoro-3,4,5′,6′-tetrahydro-2H-spiro[naphthalene-1,4′-[1,3]oxazine]-7-yl)-5-chloropicolinamide] — 110-fold lower, 22 nM
- N#Cc1ccc(C(=O)Nc2ccc3c(c2)[C@@]2(CC3)N=C(N)OCC2(F)F)nc1 [Example 15, (R)—N-(2′-Amino-5′,5′-difluoro-2,3,5′,6′-tetrahydrospiro[indene-1,4′-[1,3]oxazine]-6-yl)-5-cyanopicolinamide] — 4.9-fold lower, 510 nM
- NC1=N[C@@]2(CCc3ccc(NC(=O)c4ccc(C(F)(F)F)cn4)cc32)C(F)(F)CO1 [Example 18, (R)—N-(2′-Amino-5′,5′-difluoro-2,3,5′,6′-tetrahydrospiro[indene-1,4′-[1,3]oxazine]-6-yl)-5-(trifluoromethyl)picolinamide] — 3.8-fold lower, 660 nM
- NC1=N[C@@]2(CCOc3ccc(-c4cncnc4)cc32)C(F)(F)CO1 [Example 21, (R)-5′,5′-difluoro-6-(pyrimidin-5-yl)-5′,6′-dihydrospiro[chroman-4,4′-[1,3]oxazin]-2′-amine] — 2.1-fold higher, 5140 nM
- N#Cc1cccc(-c2ccc3c(c2)[C@@]2(CC(c4ccccc4)O3)N=C(N)OCC2(F)F)c1 (stereo partly shown) [Example 27] — 9.6-fold lower, 260 nM
- CC1(C)C[C@@]2(N=C(N)OCC2(F)F)c2cc(-c3cncc(Cl)c3)ccc2O1 [Example 28, (R)-6-(5-chloropyridin-3-yl)-5′,5′-difluoro-2,2-dimethyl-5′,6′-dihydrospiro[chroman-4,4′-[1,3]oxazin]-2′-amine] — within 1.5-fold, 2530 nM
